For assay [1], the target named is T1, COP9 signalosome complex subunit 5 (Homo sapiens, UniProt Q92905). Nature of the assay: Inhibition of N-terminal His6-tagged CSN5 (2 to 257 residues) (unknown origin) transfected in Transetta cells preincubated for 20 mins followed by N-(2-(3-(3',6'-dihydroxy-3-oxo-3H-spiro[isobenzofuran-1,9'-xanthen]-5-yl)thioureido)ethyl)-3-(2-(5-methyl-[1,1'-biphenyl]-2-yl)-1H-pyrrolo[2,3-b]pyridin-3-yl)propanamide probe addition and measured after 1 hr by fluorescence polarization assay.
Target sequence in this assay (Q92905 whole entry, the tested form may be a part, one chain of several): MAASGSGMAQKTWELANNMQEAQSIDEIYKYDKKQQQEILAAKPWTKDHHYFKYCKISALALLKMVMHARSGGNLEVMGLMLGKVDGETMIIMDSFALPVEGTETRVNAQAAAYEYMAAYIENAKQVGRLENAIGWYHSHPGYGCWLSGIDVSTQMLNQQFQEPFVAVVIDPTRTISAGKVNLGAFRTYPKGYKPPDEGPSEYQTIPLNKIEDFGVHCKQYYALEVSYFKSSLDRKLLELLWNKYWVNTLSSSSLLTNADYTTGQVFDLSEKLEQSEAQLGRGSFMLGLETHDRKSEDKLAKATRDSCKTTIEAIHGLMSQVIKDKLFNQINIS

Assay [2] concerns the target T1, COP9 signalosome complex subunit 5. Kind of assay: Inhibition of N-terminal His6-tagged CSN5 (2 to 257 residues) (unknown origin) transfected in Transetta cells preincubated for 20 mins followed by N-(2-(3-(3',6'-dihydroxy-3-oxo-3H-spiro[isobenzofuran-1,9'-xanthen]-5-yl)thioureido)ethyl)-3-(2-(5-methyl-[1,1'-biphenyl]-2-yl)-1H-pyrrolo[2,3-b]pyridin-3-yl)propanamide probe addition and measured after 1 hr by fluorescence based microplate reader assay. The format is cell-based.
Target sequence in this assay (Q92905 whole entry, the tested form may be a part, one chain of several): as above

The target is the same in assay [3]. Kind of assay: Binding affinity to N-terminal His6-tagged CSN5 (2 to 257 residues) (unknown origin) transfected in Transetta cells assessed as decrease in tryptophan fluorescence intensity incubated for 10 mins by fluorescence quenching based microplate reader analysis. It counts as cell-based. Particulars: dose 0-100 µM.
Target sequence in this assay (Q92905 2-334 limits assumed, one chain of several): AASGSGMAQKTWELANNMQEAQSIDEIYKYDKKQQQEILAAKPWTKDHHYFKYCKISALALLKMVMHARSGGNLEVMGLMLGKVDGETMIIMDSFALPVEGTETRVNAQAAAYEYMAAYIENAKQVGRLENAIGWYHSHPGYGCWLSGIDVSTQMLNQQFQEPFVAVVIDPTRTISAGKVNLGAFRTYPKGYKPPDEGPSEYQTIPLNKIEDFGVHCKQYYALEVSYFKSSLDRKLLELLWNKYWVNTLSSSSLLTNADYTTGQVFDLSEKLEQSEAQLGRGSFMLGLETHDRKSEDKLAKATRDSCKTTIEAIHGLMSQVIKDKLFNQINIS
For assay [4] the target is unchanged. Nature of the assay: Inhibition of N-terminal His6-tagged CSN5 (2 to 257 residues) (unknown origin) transfected in Transetta cells preincubated with N-(2-(3-(3',6'-dihydroxy-3-oxo-3H-spiro[isobenzofuran-1,9'-xanthen]-5-yl)thioureido)ethyl)-3-(2-(5-methyl-[1,1'-biphenyl]-2-yl)-1H-pyrrolo[2,3-b]pyridin-3-yl)propanamide probe followed by compound addition by fluorescence based microplate reader assay. The format is cell-based.
Target sequence in this assay (Q92905 2-334 limits assumed, one chain of several): as above

Assay [5] concerns MDA-MB-231. Kind of assay: Antiproliferative activity against human MDA-MB-231 cells assessed as inhibition of cell proliferation measured after 3 days by MTT assay. The format is functional, cell-based. Particulars: MDA-MB-231, 72 h. On the technique in general: Tetrazolium assays rely on reduction of a dye to a coloured formazan, in cell work by metabolically active cells.
For assay [6], the system named is HCT-116. Kind of assay: Antiproliferative activity against human HCT-116 cells assessed as inhibition of cell proliferation measured after 3 days by MTT assay. It counts as functional, cell-based. To be noted: HCT-116, 72 h.
The test system of assay [7] is HepG2. Kind of assay: Antiproliferative activity against human HepG2 cells assessed as inhibition of cell proliferation measured after 3 days by MTT assay. The format is functional, cell-based. To be noted: HepG2, 72 h.
The target in assay [8] is T1, COP9 signalosome complex subunit 5. Kind of assay: Inhibition of CSN5 in human HCT-116 cells assessed as increase in NEDD8-Cul1 level by Western blot analysis. The format is cell-based. Particulars: dose 3-30 µM. (Immunoblotting shows a protein as a band on a membrane.)
Target sequence in this assay (Q92905 2-334 limits assumed, one chain of several): as above
Assay [9] shares this target. Nature of the assay: Inhibition of CSN5 in human MDA-MB-231 cells assessed as increase in NEDD8-Cul1 level by Western blot analysis. To be noted: dose 3-30 µM. It counts as cell-based.
Target sequence in this assay (Q92905 2-334 limits assumed, one chain of several): as above
In assay [10] the test system is HCT-116. Kind of assay: Downregulation of PD-L1 protein expression in human HCT-116 cells at 30 uM by Western blot analysis. It counts as functional, cell-based.
For assay [11], the system named is MDA-MB-231. Kind of assay: Downregulation of PD-L1 protein expression in human MDA-MB-231 cells at 3 to 30 uM by Western blot analysis. It counts as functional, cell-based. Particulars: dose 3-30 µM.
Assay [12] has as its system A-375. Kind of assay: Antiproliferative activity against human A-375 cells assessed as inhibition of cell proliferation measured after 3 days by MTT assay. It counts as functional, cell-based. Particulars: A-375, 72 h.
Assay [13] has as its target T1, COP9 signalosome complex subunit 5. Kind of assay: Binding affinity to N-terminal His6-tagged Zn-II deficient CSN5 (2 to 257 residues) (unknown origin) transfected in Transetta cells assessed as tryptophan fluorescence change at 0 to 100 uM incubated for 10 mins by fluorescence quenching based microplate reader analysis. It counts as cell-based. To be noted: dose 0-100 µM.
Target sequence in this assay (Q92905 2-334 limits assumed, one chain of several): as above

The target is the same in assay [14]. Nature of the assay: Inhibition of CSN5 in human HCT-116 cells assessed as increase in neddylation of cullin1 at 3 uM by Western blot analysis. It counts as cell-based.
Target sequence in this assay (Q92905 2-334 limits assumed, one chain of several): as above
The target is the same in assay [15]. Nature of the assay: Inhibition of CSN5 in human HepG2 cells assessed as increase in neddylation of cullin1 at 3 uM by Western blot analysis. The format is cell-based.
Assay [16] has as its system HCT-116. Nature of the assay: Effect on CSN5 protein level in human HCT-116 cells at 3 uM by Western blot analysis. It counts as functional, cell-based.
Assay [17] relates to HepG2. Nature of the assay: Effect on CSN5 protein level in human HepG2 cells at 3 uM by Western blot analysis. It counts as functional, cell-based.
The subject of assay [18] is HCT-116. Kind of assay: Upregulation of PD-L1 level in human HCT-116 cells at 3 uM by Western blot analysis. The format is functional, cell-based.
In assay [19] the target is T1, COP9 signalosome complex subunit 5. Nature of the assay: Inhibition of CSN5 in human HepG2 cells assessed as increase in neddylation of cullin1 by Western blot analysis. To be noted: dose 0.3-3 µM. It counts as cell-based.
Assay [20] deals with HepG2. Nature of the assay: Effect on PD-L1 level in human HepG2 cells at 0.3 to 3 uM by Western blot analysis. To be noted: dose 0.3-3 µM. It counts as functional, cell-based.
Assay [21] concerns the target T1, COP9 signalosome complex subunit 5. To be noted: dose 50.0 µM.
Description: Thermal stabilization of N-terminal His6-tagged CSN5 (2 to 257 residues) (unknown origin) transfected in Transetta cells assessed as change in melting temperature at 50 uM by SYPRO orange dye based thermal shift assay
In assay [22] the test system is HCT-116. Nature of the assay: Upregulation of PD-L1 protein expression in human HCT-116 cells at 30 uM by Western blot analysis. The format is functional, cell-based.
The subject of assay [23] is HCT-116. Kind of assay: Upregulation of PD-L1 level in human HCT-116 cells at 30 uM by Western blot analysis. The format is functional, cell-based.

Molecules are shown by their SMILES. Activity calls are given as the source filed them. The rule behind the calls is not given here. A value given as a limit tells only on which side of the number the result lay.

What is called IC50 is the concentration needed to halve the response being measured. A word on the ΔTm: it is the change in melting temperature against a reference sample.

As for `COc1ccc2cc([C@@H](C)c3sc(N)nc3C(=O)O)ccc2c1`, the IC50 was 26.9 µM in [1]; 16.8 µM in assay [2]; 68.3 µM in assay [5]; 40.9 µM in [6]; 52.1 µM in assay [7]. The Activity entry in assay [3] was “Dose-Dependent Effect”. Further, the inhibition result in assay [4] was “Active”. Besides, the inhibition entry in assay [8] and in assay [9] was “Dose-Dependent Effect” throughout. The result in assay [10] and in assay [11] was Active.

Take `O=C1C=CC(=O)c2c(O)ccc(O)c21` [NAPHTHAZALIN]: the IC50 in [1] was 0.17 µM; in assay [2], 0.91 µM; in assay [6], 1.04 µM; in assay [7], 4.97 µM; in assay [12], 8.85 µM.

For the molecule `CC(=O)O[C@H](CC=C(C)C)C1=CC(=O)c2c(O)ccc(O)c2C1=O` [ACETYLSHIKONIN], the IC50 is 0.43 µM in [1]; 1.07 µM in assay [2]; 3.56 µM in assay [6]; 6.48 µM in assay [7]; 1.91 µM in assay [12].

For the molecule `CC(C)Cc1sc(N)nc1C(=O)O`, the IC50 in assay [1] and in [2] was above 300 µM throughout.

For the molecule `CC(C)=CC[C@@H](O)C1=CC(=O)c2c(O)ccc(O)c2C1=O` [SHIKONIN], the IC50 was determined as 0.19 µM in [1]; 0.41 µM in assay [2]; 0.52 µM in [6]; 2.96 µM in [7]; 0.7 µM in [12]. The Activity entry in assay [3] is “Dose-Dependent Effect”. Further, the inhibition entry in assay [4], in [14] and in assay [15] was “Active” each time. In addition, the result in [13], in [16], in assay [17] and in assay [20] was inactive. Further, the outcome in assay [18] was Active. Moreover, the inhibition entry in assay [19] was “Dose-Dependent Effect”. Besides, the shift in melting temperature (ΔTm) in assay [21] worked out at 1 °C.

Take `Nc1nc(C(=O)O)c(CCc2ccc(Br)cc2)s1`: the IC50 is 65.5 µM in [1]; 64.6 µM in assay [2]; 34.1 µM in assay [5]; 55.6 µM in assay [6]; above 100 µM in assay [7].

On to `Cc1ccc(CCc2sc(N)nc2C(=O)O)o1`, for which the results for the concentration for half-maximal inhibition (IC50) in [1] and in assay [2] were 188 µM and 163 µM, respectively.

For the molecule `Nc1nc(C(=O)O)c(CCc2ccc(Cl)cc2Cl)s1`, the IC50 in [1] was 41.7 µM; in assay [2], 41.7 µM; in assay [5], above 100 µM; in assay [6], 56.5 µM; in assay [7], above 100 µM.

Turning to `CC(C)(C)c1ccc(Cc2sc(N)nc2C(=O)O)cc1`, the IC50 in [1] came out at 92.1 µM; in [2] it was 83.2 µM.

Turning to `CC(C)=CCCC1=CC(=O)c2c(O)ccc(O)c2C1=O` [DEOXYSHIKONIN], the IC50 is 2.51 µM in [1]; 4.81 µM in assay [2]; 15.5 µM in [6]; 10.5 µM in [7]; 6.83 µM in assay [12]. Besides, the Activity entry in [3] was “Dose-Dependent Effect”. For the same molecule, the inhibition result in assay [14] and in assay [15] was “Active” each time. For the same molecule, the outcome in assay [16], in [17] and in assay [18] was inactive.

Regarding `CC(C)=CC[C@@H](OC(=O)C(C)C)C1=CC(=O)c2c(O)ccc(O)c2C1=O` [ISOBUTYLSHIKONIN], the IC50 in [1] was 0.6 µM; in [2], 1.17 µM; in [6], 1.73 µM; in [7], 8.73 µM; in assay [12] it was 1.71 µM.

Turning to `Nc1nc(C(=O)O)c(CCc2cccc3ccccc23)s1`, the IC50 in assay [1] was determined as 30.3 µM; in [2], 28.3 µM; in assay [5] it was 22.4 µM; in assay [6], 17.7 µM; in assay [7], 30.8 µM.

`CC(C)(C)c1ccc(CCc2sc(N)nc2C(=O)O)cc1`: the IC50 in assay [1] was 19.1 µM; in [2], 29.8 µM; in [5] it was 52.5 µM; in [6], 52 µM; in assay [7], above 100 µM.

`CC(C)=CC[C@H](O)C1=CC(=O)c2c(O)ccc(O)c2C1=O` [ALKANNIN]: the IC50 came out at 0.27 µM in assay [1]; 0.8 µM in assay [2]; 0.83 µM in assay [6]; 4.86 µM in assay [7]; 1.42 µM in [12]. The ΔTm in assay [21] was found to be 1 °C.

For `CC(C)c1ccc(CC(C)c2sc(N)nc2C(=O)O)cc1` (stereo unspecified), the IC50 in assay [1] is 13.5 µM; in assay [2] it was 14.9 µM; in [5], 14 µM; in assay [6], 16.3 µM; in assay [7], 37.3 µM. Further, in assay [3], the Activity result is “Dose-Dependent Effect”.

Consider `CC(C)c1ccc(Cc2sc(N)nc2C(=O)O)cc1`, for which the IC50 in assay [1] turned out to be 111 µM; in assay [2] it was 80.1 µM.

For `CCCCc1sc(N)nc1C(=O)O`, the IC50 in [1] and in assay [2] was above 300 µM each time.

In the case of `CC(Cc1ccc(C(C)(C)C)cc1)c1sc(N)nc1C(=O)O` (stereo unspecified), the IC50 in [1] is 12.6 µM; in [2] it was 19 µM; in assay [5], 22.8 µM; in [6], 24.1 µM; in assay [7], 39.1 µM. The Activity result in assay [3] was “Dose-Dependent Effect”. In assay [4], the inhibition result was “Active”. Besides, the inhibition result in assay [8] and in assay [9] was “Dose-Dependent Effect” in each case.

Consider `Cc1ccc(-c2[nH]c3ncccc3c2CCC(=O)N2CCOC[C@H]2c2nc3ccccc3[nH]2)c(-c2ccccc2)c1`, for which the result in [22] and in assay [23] was Active.

(Values after ChEMBL document CHEMBL5550220, “Discovering New Metallo-Deubiquitinase CSN5 Inhibitors by a Non-Catalytic Activity Assay Platform” (J Med Chem, 2024).)
